The test system of data set [1] is triple negative breast cancer cell line MDA-MB-468. In words: Cell-based IC50 assay, adherent cells, MDA-MB-468. The settings on record: Homo sapiens, 72 hours, CellTiter 96 Aqueous One, metabolically active cells decreased by 50%. Here is the method: (§1) In one embodiment, the IC50s of the compounds provided herein were determined in cell-based assays using adherent cells. In one embodiment, the activity of the compounds provided herein were determined in a cell-based assay using the triple negative breast cancer cell line MDA-MB-468. In one embodiment, the activity of the compounds provided herein were determined in a cell-based assay using the triple negative breast cancer cell line MDA-MB-231. In one embodiment, the activity of the compounds provided herein were determined in a cell-based assay using the triple negative breast cancer cell line 4T1.
(§2) In one embodiment, the cell-based assay may be carried out as provided herein. On day 0, cells were seeded at 20,000 cells per well in 100 μL of media into individual wells of a 96-well tissue culture plate. The next day, compounds were diluted to twice the desired final concentration and added in 100 μL of media for a final volume of 200 μL. Standard solutions for each compound were prepared at 1000× concentration in DMSO. The highest concentration was […]. Serial 1:1 dilutions were made from there for a 6- or 9-point curve (e.g., 20 mM, 10 mM, 5 mM, etc). Compounds were then diluted 1:500 in media, and 100 μL of the resulting solution was added to each well for a final dilution of 1:1000. Each concentration of compound was tested in triplicate. Cells were incubated at 37° C. with 5% CO2. After 72 hours, 20 μL of CellTiter 96 Aqueous One Solution Cell Proliferation Assay (Promega) was added to each well. Cells were placed back in the incubator, and the absorbance at 490 nm was read after 2-3 hours. The concentration of compound that decreased the number of metabolically active cells by 50% was determined and reported as the IC50. “Percent Viability” was determined by subtracting the average background value (media only) and expressed as a ratio to the average value obtained from cells treated with only DMSO.
The IC50s of the compounds provided herein and some reference compounds were determined in cell-based assay using triple negative breast cancer cell line MDA-MB-468.

Data set [2] has as its system m7GpppN-capped luciferase mRNA reporter. Description: In vitro HeLa cell extract translation system, translation inhibition. It counts as biochemical. Particulars: concentration not given. Here is the method: In one embodiment, the compounds provided herein were assayed for translation inhibition activity using an in vitro HeLa cell extract translation system with an m7GpppN-capped luciferase mRNA reporter.

In data set [3] the test system is triple negative breast cancer cell line MDA-MB-231. In words: Cell-based IC50 assay, adherent cells, MDA-MB-231. Particulars: Homo sapiens, 72 hours, CellTiter 96 Aqueous One. The protocol: as §1, §2
A short description of data set [4]: PK study and oral bioavailability, mouse. It counts as in vivo. The settings on record: plasma 0 to 6 h.
A short description of data set [5]: PK study and oral bioavailability, rat. The format is in vivo. Particulars: plasma 0 to 6 h.
Data set [6] relates to triple negative breast cancer cell line 4T1. In words: Cell-based IC50 assay, adherent cells, 4T1. Particulars: 72 hours, CellTiter 96 Aqueous One. The protocol: as §1
In one embodiment, the cell-based assay may be carried out as provided herein. On day 0, cells were seeded at 20,000 cells per well in 100 μL of media into individual wells of a 96-well tissue culture plate. The next day, compounds were diluted to twice the desired final concentration and added in 100 μL of media for a final volume of 200 μL. Standard solutions for each compound were prepared at 1000× concentration in DMSO. The highest concentration was 30 mM. […] Cells were placed back in the incubator, and the absorbance at 490 nm was read after 2-3 hours. […] “Percent Viability” was determined by subtracting the average background value (media only) and expressed as a ratio to the average value obtained from cells treated with only DMSO.

Setting [7] is: IV 5 mg/kg, read-out: IV Administration (5 mg/kg) C0.
[8] abbreviates: IV 5 mg/kg, read-out: IV Administration (5 mg/kg) T½ (converted).
[9] abbreviates: PO 25 mg/kg, read-out: PO Administration (25 mg/kg) C0.

In data set [1], `Cc1cc(C(C)(C)C)cc(C)c1S(=O)(=O)Nc1cc(C(F)(F)F)cc(C(F)(F)F)c1Cl` [Compound 10, 4-Tert-butyl-N-[2-chloro-3,5-bis(trifluoromethyl)phenyl]-2,6-dimethyl-benzenesulfonamide] had an IC50 of 3 µM.
Still for that read-out and setting: with `CC(=O)Nc1ccc(S(=O)(=O)Nc2cc(C(F)(F)F)cc(C(F)(F)F)c2)cc1` [Reference compound 13] the figure was more than 20 µM; with `Cc1c(C)c(C)c(S(=O)(=O)Nc2cc(C(F)(F)F)cc(C(F)(F)F)c2)c(C)c1C` [Reference compound 5], more than 20 µM; with `CC(C)c1cc(C(C)C)c(S(=O)(=O)Nc2ccccc2F)c(C(C)C)c1` [Reference compound 11], more than 20 µM.
Still for that read-out and setting: with `Cc1c(Cl)cccc1NS(=O)(=O)c1c(C(C)C)cc(C(C)C)cc1C(C)C` [Reference compound 12] the figure was 19 µM.
For the compound `CC(C)c1cc(C(C)C)c(S(=O)(=O)Nc2cccc(F)c2)c(C(C)C)c1` [Reference compound 9], in data set [1], the IC50 was more than 20 µM.
Same read-out and setting: with `CCc1cccc(CC)c1S(=O)(=O)Nc1cc(C(F)(F)F)cc(C(F)(F)F)c1` [Compound 8, N-[3,5-Bis(trifluoromethyl)phenyl]-2,6-diethyl-benzenesulfonamide] the figure was 1.5 µM.
With `C[C@@H]1C[C@@H]([C@H](O)CC2CC(=O)NC(=O)C2)C(=O)[C@@H](C)C1` [cycloheximide, reference compound], the “inhibition of luciferase activity (comparator)” value in data set [2] came out at 99.3%.
For `CC(C)c1cc(C(C)C)c(S(=O)(=O)Nc2ccc(Br)cc2)c(C(C)C)c1` [Reference compound 7], the IC50 in data set [1] was determined as 14 µM.
Regarding `CC(C)c1cc(C(C)C)c(S(=O)(=O)Nc2cc(C(F)(F)F)cc(C(F)(F)F)c2Cl)c(C(C)C)c1` [Compound 3, N-[2-Chloro-3,5-bis(trifluoromethyl)phenyl]-2,4,6-triisopropyl-benzenesulfonamide], the concentration for half-maximal inhibition (IC50) in data set [3] amounted to 3 µM; in data set [1], 4.5 µM.
Regarding `Cc1cc(C(C)(C)C)cc(C)c1S(=O)(=O)Nc1cc(C(F)(F)F)cc(C(F)(F)F)c1` [Compound 6, N-[3,5-Bis(trifluoromethyl)phenyl]-4-tert-butyl-2,6-dimethyl-benzenesulfonamide], in data set [1], 7 µM corresponded to half-maximal inhibition (IC50).
The same measure, in the same setting: with `N#Cc1ccc(NS(=O)(=O)c2cc(C(F)(F)F)cc(C(F)(F)F)c2)cc1Cl` [Reference compound 3] the figure was more than 20 µM.
Regarding `CC(C)c1cc(C(C)C)c(S(=O)(=O)Nc2cc(C(F)(F)F)cc(C(F)(F)F)c2Br)c(C(C)C)c1` [Compound 5, N-[2-Bromo-3,5-bis(trifluoromethyl)phenyl]-2,4,6-triisopropyl-benzenesulfonamide], the IC50 in data set [1] was found to be 5 µM.
Still for that read-out and setting: with `Cc1ccc(C)c(NS(=O)(=O)c2c(C(C)C)cc(C(C)C)cc2C(C)C)c1` [Reference compound 8] the figure was more than 20 µM; with `CCc1cccc(CC)c1S(=O)(=O)Nc1cc(C(F)(F)F)cc(C(F)(F)F)c1C` [Compound 7, 2,6-Diethyl-N-[2-methyl-3,5-bis(trifluoromethyl)phenyl]benzenesulfonamide], 2 µM.
Compound `Cc1cc(C(C)(C)C)cc(C)c1S(=O)(=O)Nc1cc(C(F)(F)F)cc(C(F)(F)F)c1C` [Compound 9, 4-Tert-butyl-2,6-dimethyl-N-[2-methyl-3,5-bis(trifluoromethyl)phenyl]benzenesulfonamide] showed an IC50 in data set [1] of 5 µM.
On the same count and under the same terms, with `CC(C)c1cc(C(C)C)c(NS(=O)(=O)c2cc(C(F)(F)F)cc(C(F)(F)F)c2)c(C(C)C)c1` [Compound 4, 3,5-Bis(trifluoromethyl)-N-(2,4,6-triisopropylphenyl)benzenesulfonamide] the figure was 12 µM; with `COc1ccc(OC)c(S(=O)(=O)Nc2cc(C(F)(F)F)cc(C(F)(F)F)c2)c1` [Reference compound 6], more than 20 µM.
With `Cc1c(NS(=O)(=O)c2c(C(C)C)cc(C(C)C)cc2C(C)C)cc(C(F)(F)F)cc1C(F)(F)F` [Compound 2, N-[2-Methyl-3,5-bis(trifluoromethyl)phenyl]-2,4,6-triisopropyl-benzenesulfonamide], the results for the IC50 in data set [3], in data set [1] and in data set [6] were 6 µM, 2 µM and 5 µM, respectively. The C0 in data set [4] (setting [7]) was determined as 53700 ng/mL; in data set [4] (setting [9]), 3610 ng/mL; in data set [5] (setting [7]), 68900 ng/mL; in data set [5] (setting [9]), 27600 ng/mL. In addition, the half-life was 2.9 h in data set [4] (setting [8]); 2.4 h in data set [4] (PO 25 mg/kg, read-out: PO Administration (25 mg/kg) T½ (converted)); 1.6 h in data set [5] (setting [8]); more than 6 h in data set [5] (PO 25 mg/kg, read-out: PO Administration (25 mg/kg) T½).
In data set [1], `Cc1cc(C)c(NS(=O)(=O)c2c(C(C)C)cc(C(C)C)cc2C(C)C)c(C)c1` [Reference compound 10] displayed a 50% inhibitory concentration (IC50) of more than 20 µM.
Still for that read-out and setting: with `O=S(=O)(Nc1cc(C(F)(F)F)cc(C(F)(F)F)c1)c1cc(C(F)(F)F)cc(C(F)(F)F)c1` [Reference compound 1] the figure was more than 20 µM; with `O=S(=O)(Nc1cc(C(F)(F)F)cc(C(F)(F)F)c1)c1c(Cl)cccc1Cl` [Reference compound 2], 10 µM.
Same read-out and setting: with `Cc1cc(C)c(S(=O)(=O)Nc2cc(C(F)(F)F)cc(C(F)(F)F)c2)c(C)c1` [Reference compound 4] the figure was 17 µM.

Usually IC50 stands for the concentration needed to halve the response being measured.

The values are drawn from patent US11713293B2, “Substituted biaryl sulfonamides and the use thereof” (NovoMedix, LLC, priority 2012, dated 2023).
